Counter-ions that a name gives are not always drawn. Like-named read-outs stand apart in the source and are kept apart here.
How the values were obtained:
[1] = system: leukotriene pathway in human whole blood (LTB4 levels); experiment: Human whole blood assay (A23187-stimulated LTB4); type: cell-based; conditions: Homo sapiens, read-out: LTB4 IC50 1:1
Experimental: The ability of the compounds of the present invention to treat a FLAP-mediated disease and/or disorder, or associated symptoms or complications thereof, was determined using the following procedures. Binding assay data represent the average value obtained from two different assay plates, with samples run in duplicate on each plate. Human whole blood assay data represent a single replicate on an assay plate using whole blood from at least one healthy donor.
An in vitro cellular assay was performed using human whole blood collected in heparin-containing tubes, which was used to test the ability of compounds to modulate the leukotriene pathway in human whole blood. The blood was diluted 1:1 in RPMI medium, pre-incubated for 15 min at 37° Celsius with test compounds at various concentrations, and then stimulated with calcium ionophore, A23187 (7 μg/mL), for 30 min at 37° Celsius. The samples were then centrifuged and plasma was removed. The plasma was diluted in assay buffer and LTB4 levels were measured using a commercial kit (Enzo Life Sciences). The concentration of each compound that was required for half-maximal inhibition (modulation) of recombinant enzyme activity (IC50) was calculated by a 4-parameter equation using the program GraphPad Prism (GraphPad software).

human FLAP = human FLAP (Homo sapiens (Human), UniProt P20292); experiment: FLAP binding assay (HTRF format)
How it was run: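 HTRF ratio read-out; two independent plates, samples in duplicate on each, values averaged across plates.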

[2] = human whole blood diluted 1:1, A23187-stimulated
[3] = human whole blood diluted 1:1 in RPMI, A23187-stimulated LTB4
[4] = human FLAP wild type, HTRF format, average of two plates, duplicates
[5] = read-out: FLAP Binding wild type HTRF Ki

Sequence of human FLAP (P20292 whole entry): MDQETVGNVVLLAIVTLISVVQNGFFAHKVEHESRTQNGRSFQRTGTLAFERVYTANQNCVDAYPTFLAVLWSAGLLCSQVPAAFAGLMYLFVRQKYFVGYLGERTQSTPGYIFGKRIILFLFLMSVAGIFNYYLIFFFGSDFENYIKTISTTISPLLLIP

Compound	Ki (human FLAP; wild type FLAP, HTRF format) [nM]	other results
CC(C)(C)NS(=O)(=O)c1ccccc1-c1ccc(-c2cnc(N)nc2)c(F)c1F [Example 466, 4′-(2-Aminopyrimidin-5-yl)-N-tert-butyl-2′,3′-difluorobiphenyl-2-sulfonamide trifluoroacetic acid salt]	–	IC50 [1, 2]: 990 nM
Fc1cc(-c2cccnc2OCC2CC2)ccc1-c1cnc2[nH]ccc2n1 [Example 400, 2-{4-[2-(Cyclopropylmethoxy)pyridin-3-yl]-2-fluorophenyl}-5H-pyrrolo[2,3-b]pyrazine]	–	IC50 [1, 2]: 729 nM
Nc1ncc(-c2ccc(-c3ccccc3S(=O)(=O)Cc3nc(C4CC4)no3)cc2F)cn1 [Example 321, 5-(2′-{[(3-Cyclopropyl-1,2,4-oxadiazol-5-yl)methyl]sulfonyl}-3-fluorobiphenyl-4-yl)pyrimidin-2-amine]	–	IC50 [1, 3]: 8490 nM
Nc1cnc(-c2ccc(-c3ccccc3S(=O)(=O)N[C@@H]3c4ccccc4C[C@@H]3O)cc2F)cn1 [Example 161, 4′-(5-Aminopyrazin-2-yl)-3′-fluoro-N-((1R,2S)-2-hydroxy-2,3-dihydro-1H-inden-1-yl)-[1,1′-biphenyl]-2-sulfonamide]	–	IC50 [1, 3]: 48 nM
N#Cc1nc(N)cnc1-c1ccc(-c2ccccc2Oc2nccc(N)n2)cc1F [Example 745, 6-Amino-3-{2′-[(4-aminopyrimidin-2-yl)oxy]-3-fluorobiphenyl-4-yl}pyrazine-2-carbonitrile]	–	IC50 [1, 2]: 111 nM
C[C@@H](CO)NS(=O)(=O)c1ccccc1-c1ccc(-c2cnc(N)cn2)c(F)c1 [Example 25, (R)-4′-(5-Aminopyrazin-2-yl)-3′-fluoro-N-[(1R)-2-hydroxy-1-methylethyl]biphenyl-2-sulfonamide]	–	IC50 [1, 3]: 23 nM
Nc1cnc(-c2ccc(-c3ccc(C(F)(F)F)cc3Oc3ncccn3)cc2F)cn1 [Example 551, 5-[3-Fluoro-2′-(pyrimidin-2-yloxy)-4′-(trifluoromethyl)biphenyl-4-yl]pyrazin-2-amine]	–	IC50 [1, 2]: 21 nM
CCC(C)S(=O)(=O)c1ncccc1-c1ccc(-c2cnc(N)cn2)c(F)c1 (racemic) [Example 814, racemic 5-(4-(2-(sec-Butylsulfonyl)pyridin-3-yl)-2-fluorophenyl)pyrazin-2-amine formate]	–	IC50 [1, 2]: 20.9 nM
CC(C)(C(N)=O)S(=O)(=O)c1ccccc1-c1ccc(-c2cnc(N)cn2)c(F)c1 [Example 736, 2-{[4′-(5-Aminopyrazin-2-yl)-3′-fluorobiphenyl-2-yl]sulfonyl}-2-methylpropanamide]	–	IC50 [1, 2]: 414 nM
O=S1(=O)CCN(S(=O)(=O)c2ccccc2-c2ccc(-c3cnc4[nH]ccc4n3)c(F)c2)CC1 [Example 382, 2-{2′-[(1,1-Dioxidothiomorpholin-4-yl)sulfonyl]-3-fluorobiphenyl-4-yl}-5H-pyrrolo[2,3-b]pyrazine]	–	IC50 [1, 3]: 11 nM
Nc1cnc(-c2ccc(-c3ccccc3S(=O)(=O)NCCCO)cc2F)cn1 [Example 80, 4′-(5-Aminopyrazin-2-yl)-3′-fluoro-N-(3-hydroxypropyl)biphenyl-2-sulfonamide]	–	IC50 [1, 3]: 88 nM
N#Cc1nc(N)cnc1-c1ccc(-c2ccc(C(F)(F)F)cc2S(=O)(=O)N2CCNC(=O)C2)cc1F [Example 715, 6-Amino-3-{3-fluoro-2′-[(3-oxopiperazin-1-yl)sulfonyl]-4′-(trifluoromethyl)biphenyl-4-yl}pyrazine-2-carbonitrile]	–	IC50 [1, 2]: 186 nM
CS(=O)(=O)NS(=O)(=O)c1ccccc1-c1ccc(-c2cnc(N)cn2)c(F)c1 [Example 96, 4′-(5-Aminopyrazin-2-yl)-3′-fluoro-N-(methylsulfonyl)biphenyl-2-sulfonamide]	–	IC50 [1, 3]: > 10000 nM
Nc1ncc(-c2ccc(-c3ccccc3S(=O)(=O)N3CCNCC3)cc2F)cn1 [Example 290, 5-[3-Fluoro-2′-(piperazin-1-ylsulfonyl)biphenyl-4-yl]pyrimidin-2-amine trifluoroacetic acid salt]	–	Ki (human FLAP; [4]): 940 nM
NC(=O)Nc1ccccc1-c1ccc(-c2cnc(N)cn2)c(F)c1 [Example 460, 1-[4′-(5-Aminopyrazin-2-yl)-3′-fluorobiphenyl-2-yl]u rea]	> 10000	–
Nc1ncc(-c2ccc(-c3ccccc3C(=O)N3CCOCC3)cn2)cn1 [Example 677, 5-{5-[2-(Morpholin-4-ylcarbonyl)phenyl]pyridin-2-yl}pyrimidin-2-amine]	> 10000	–
Nc1cnc(-c2ccc(-c3ccccc3C(=O)N3CCC(N)CC3)cc2F)cn1 [Example 515, 5-{2′-[(4-Aminopiperidin-1-yl)carbonyl]-3-fluorobiphenyl-4-yl}pyrazin-2-amine]	> 10000	–
C[C@@H](CO)NC(=O)c1ccccc1-c1ccc(-c2cnc(N)cn2)c(F)c1 [Example 513, 4′-(5-Aminopyrazin-2-yl)-3′-fluoro-N-[(1S)-2-hydroxy-1-methylethyl]biphenyl-2-carboxamide]	> 10000	–
CC(C)(C)NS(=O)(=O)c1ccccc1-c1ccc(-c2ccc3c(c2)CC(=O)N3)c(F)c1 [Example 595, N-tert-Butyl-3′-fluoro-4′-(2-oxo-2,3-dihydro-1H-indol-5-yl)biphenyl-2-sulfonamide]	~2490	–
CS(=O)(=O)c1ccccc1-c1ccc(-c2cnc(N)nc2)c(F)c1 [Example 304, 5-[3-Fluoro-2′-(methylsulfonyl)biphenyl-4-yl]pyrimidin-2-amine trifluoroacetic acid salt]	–	Ki (human FLAP; [5]): > 10000 nM
Nc1cnc(-c2ccc(-c3ccccc3CS(=O)(=O)N3CCNC(=O)C3)cc2F)cn1 [Example 223, 4-({[4′-(5-Aminopyrazin-2-yl)-3′-fluorobiphenyl-2-yl]methyl}sulfonyl)piperazin-2-one formic acid salt]	–	Ki (human FLAP; [5]): 663 nM
Nc1cnc(-c2ccc(-c3ccccc3S(N)(=O)=O)cc2)cn1 [Example 594, 4′-(5-Aminopyrazin-2-yl)biphenyl-2-sulfonamide]	> 10000	–
Cc1cc(-c2ccccc2S(=O)(=O)N(C)C)ccc1-c1cnc(N)cn1 [Example 591, 4′-(5-Aminopyrazin-2-yl)-N,N,3′-trimethylbiphenyl-2-sulfonamide]	~2490	–
NC(=O)c1ccccc1-c1ccc(-c2cnc(N)cn2)c(F)c1 [Example 486, 4′-(5-Aminopyrazin-2-yl)-3′-fluorobiphenyl-2-carboxamide]	2500	–
Nc1ncc(-c2ccc(-c3ccccc3S(=O)(=O)N3CCNC(=O)C3)cc2F)cn1 [Example 306, 4-{[4′-(2-Aminopyrimidin-5-yl)-3′-fluorobiphenyl-2-yl]sulfonyl}piperazin-2-one trifluoroacetic acid salt]	–	Ki (human FLAP; [4]): 397 nM
Nc1ncc(-c2ccc(-c3cccnc3S(=O)(=O)C3CCNC3)cc2F)cn1 (stereo not drawn) [Example 804, 5-(2-Fluoro-4-(2-(pyrrolidin-3-ylsulfonyl)pyridin-3-yl)phenyl)pyrimidin-2-amine formic acid salt]	–	Ki (human FLAP; [5]): 636 nM
Nc1ncc(-c2ccccc2-c2cnc(-c3cnc(N)nc3)c(F)c2)cn1 [Example 854, 5-{2-[6-(2-Aminopyrimidin-5-yl)-5-fluoropyridin-3-yl]phenyl}pyrimidin-2-amine]	1280	–
CC(O)C1CN(C(=O)c2ccccc2-c2ccc(-c3cnc(N)cn3)c(F)c2)CCO1 (mixture of isomers) [Example 758, 1-(4-{[4′-(5-Aminopyrazin-2-yl)-3′-fluorobiphenyl-2-yl]carbonyl}morpholin-2-yl)ethanol (Diastereomeric Mixture)]	557	–

More lines, main results first:

Ki (human FLAP; wild type FLAP, HTRF format) [nM]	Compound	other results
750	Nc1cnc(-c2ccc(-c3ccccc3OC(F)(F)F)cc2F)cn1 [Example 475, 5-[3-Fluoro-2′-(trifluoromethoxy)biphenyl-4-yl]pyrazin-2-amine]	–
1250	N#Cc1nc(-c2ccc(-c3ccccc3C(=O)N3CCOCC3)cc2F)cnc1N [Example 416, 3-Amino-6-[3-fluoro-2′-(morpholin-4-ylcarbonyl)biphenyl-4-yl]pyrazine-2-carbonitrile]	–
1250	CC(C)(C)NS(=O)(=O)c1ccccc1-c1ccc(-c2ncc3cc[nH]c3n2)c(F)c1 [Example 418, N-tert-Butyl-3′-fluoro-4′-(7H-pyrrolo[2,3-d]pyrimidin-2-yl)biphenyl-2-sulfonamide]	–
> 10000	CNC1CCN(C(=O)c2ccccc2-c2ccc(-c3cnc(N)nc3)c(F)c2)CC1 [Example 792, [2-[4-(2-Aminopyrimidin-5-yl)-3-fluoro-phenyl]phenyl]-[4-(methylamino)-1-piperidyl]methanone]	–
> 10000	Nc1cnc(-c2ccc(-c3ccccc3C(=O)NC3CCOCC3)cc2F)cn1 [Example 756, 4′-(5-Aminopyrazin-2-yl)-3′-fluoro-N-(tetrahydro-2H-pyran-4-yl)biphenyl-2-carboxamide]	–
336	Nc1cnc(-c2ccc(-c3ccccc3OCCO)cc2F)cn1 [Example 628, 2-{[4′-(5-Aminopyrazin-2-yl)-3′-fluorobiphenyl-2-yl]oxy}ethanol]	–
> 10000	CC(C)(C)NS(=O)(=O)c1ccccc1-c1ccc(-c2cn3c(C#N)cccc3n2)c(F)c1 [Example 584, N-tert-Butyl-4′-(5-cyanoimidazo[1,2-a]pyridin-2-yl)-3′-fluorobiphenyl-2-sulfonamide]	–
> 10000	Nc1cnc(-c2ccc(-c3cccnc3C(=O)N3CCOCC3)cc2F)cn1 [Example 783, 5-{2-Fluoro-4-[2-(morpholin-4-ylcarbonyl)pyridin-3-yl]phenyl}pyrazin-2-amine]	–
